Experimental data as given in paper PMC12030059, “Mechanistic Advances in the Therapeutic Application of Bixin for Lung Inflammation In Vitro and In Vivo” (Pharmaceuticals, 2025).

Tests used:
[1] = Rat plasma stability; format: in vitro ADME; details: over 4 h, 50 μM, 37 °C
Description: Two- to three-month-old healthy male Wistar rats (with an average weight of 385 g) were obtained from the Graduation Program in Pharmacology and Medicinal Chemistry Bioterium (CCS/UFRJ) (Rio de Janeiro, Brazil). The rats were fed ad libitum with Purina chow (Nuvilab, Curitiba, Brazil) and had unrestricted access to water. They were housed in a controlled environment maintained at 22 ± 2 °C, 50–70% relative humidity and a 12 h light/dark cycle. The local Animal Ethics Committee approved all experimental procedures (046/21).
A 10 mM stock solution of bixin was prepared in DMSO. Rat blood was collected with heparin and centrifuged. The plasma fraction was separated and diluted to 80% in PBS at pH 7.4. Then, 50 μL of the 80% rat plasma solution was added to a final volume of 250 μL of a KPE at pH 7.4 containing 50 μM of bixin. The bixin was incubated with rat plasma under these conditions for 0, 30, 60, 120, and 240 min with shaking in a water bath at 37 °C. […] The supernatant was collected, filtered through a 0.22 μm filter into a vial, and then analyzed by HPLC using an LC-20AD Shimadzu (Kyoto, Japan) system equipped with a 100-5C18 Kromasil (Bohus, Sweden) analytical column (4.6 mm × 250 mm, 5 μm) and an SPD M20A diode array detector Shimadzu (Kyoto, Japan) set to wavelengths of 271 nm and 457 nm. […]

[2] = Rat liver microsomal stability in the absence of cofactors (NADPH generating system); format: in vitro ADME; details: rat liver microsomes without NADPH cofactors, 4 h, 50 μM, 37 °C
Description: A final solution of microsomes (1 mg/mL protein) in 250 μL of PBS at pH 7.4 containing 50 μM of bixin was prepared in the absence of an NADPH-regenerating metabolic cofactor system. The bixin was incubated with rat microsomes under these conditions for 0, 30, 60, 120, and 240 min with shaking in a water bath at 37 °C. The subsequent steps for protein precipitation, bixin extraction, and HPLC analysis were identical to those described for the rat plasma stability assay.

[3] = Solubility tests of the potassium salt; format: physicochemical

initial concentration retained in plasma [1]	initial concentration maintained in microsomes [2]	Compound	aqueous solubility relative to bixin [3]
~100%	~100%	COC(=O)/C=C/C(C)=C\C=C\C(C)=C\C=C\C=C(C)\C=C\C=C(C)\C=C\C(=O)O [HBx, (2E,4E,6E,8E,10E,12E,14E,16Z,18E)-20-methoxy-4,8,13,17-tetramethyl-20-oxoicosa-2,4,6,8,10,12,14,16,18-nonaenoic acid]	
		potassium bixinate [KBx]	significant increase in the aqueous solubility
